Measurements reported in PMC7159882, “Polyunsaturated fatty acid analogues differentially affect cardiac NaV, CaV, and KV channels through unique mechanisms” (eLife, 2020).

Key:
Cav1.2/β3/α2δ = target: T1, Cav1.2/β3/α2δ (Homo sapiens, UniProt Q13936); experiment: Two-electrode voltage clamp of Cav1.2/β3/α2δ expressed in Xenopus oocytes (Ba2+ as charge carrier); format: cell-based; conditions: for ICa I/I0: relative current at 0 mV
T1 construct: expressed in transfected cells; host or cells: Xenopus laevis oocytes (cRNA injection, Cav1.2:β3:α2δ 2:1:1 by weight)
Description: Molecular Biology cRNA encoding Kv7.1 (UniProt: P51787), KCNE1 (UniProt: P15382.1), Nav1.5 (UniProt: Q14524.1), Nav β1 (UniProt: […]), Nav β3 (UniProt: […]), Cav1.2 (GenBank: CAA84346), Cav β3 (Uniprot: P54286), Cav β2 (Uniprot: P54288), and Cav α2δ (Uniprot: P13806) were transcribed using the mMessage mMachine T7 kit (Ambion). 50 ng of cRNA was injected into defolliculated Xenopus laevis oocytes (Ecocyte, Austin, TX): For Kv7.1/KCNE1 channel expression, we injected a 3:1, weight:weight (Kv7.1:KCNE1) cRNA ratio. For Nav1.5 channel expression, we injected a 2:1, weight:weight (Nav1.5:β1) cRNA ratio. For Cav1.2 channel expression, we injected a 2:1:1, weight:weight (Cav1.2:β3:α2δ) cRNA ratio. The exact stoichiometry for channel macromolecular complexes, including α -subunits and auxiliary subunits is not clear for many ion channels. For example, there have been multiple reported stoichiometries for Kv7.1:KCNE1 determined in heterologous expression systems with some groups reporting flexible stoichiometry of 4 Kv7.1: 1–4 KCNE1 and others reporting a fixed stoichiometry of 4 Kv7.1: 2 KCNE1 ([Murray et al., 2016]; [Nakajo et al., 2010]). The ratios of cRNA of α- and auxiliary subunits that we injected in Xenopus laevis oocytes are such that all α-subunits are assumed to be in complex with auxiliary subunits. This allows a more homogenous population of ion channels with auxiliary subunits. One caveat to expressing ion channels as macromolecular complexes is that there are many other auxiliary subunits that could associate with the channel α -subunit that are present in cardiomyocytes and have the potential to alter PUFA-induced effects, but that are not being co-expressed in our experiments. In this work, we are co-expressing some of the auxiliary subunits that have been primarily reported to associate with their respective α -subunits in cardiomyocytes. Following cRNA injection, cells were incubated for 72–96 hr in standard ND96 solution (96 mM NaCl, 2 mM KCl, 1 mM MgCl2, 1.8 mM CaCl2, 5 mM HEPES; pH = 7.5) containing 1 mM pyruvate at 16°C prior to electrophysiological recordings.
Xenopus laevis oocytes were recorded in the two-electrode voltage clamp (TEVC) configuration. Recording pipettes were filled with 3 M KCl. The recording chamber was filled with ND96 (96 mM NaCl, 2 mM KCl, 1 mM MgCl2, 1.8 mM CaCl2, 5 mM HEPES; pH 7.5). For Cav1.2/β3/α2δ channel recordings, Xenopus oocytes were injected with 50 nl of 100 mM EGTA and incubated at 10°C for 30 min prior to electrophysiological recordings in order to sequester cytosolic calcium. In addition, Cav1.2/β3/α2δ channel recordings were done in Ca^2+-free solutions, using Ba^2+ as the charge carrier, to prevent calcium-dependent inactivation of Cav1.2/β3/α2δ channels. Calcium-dependent inactivation was not studied in this work, due to the presence of large calcium-activated chloride currents present in Xenopus laevis oocytes. PUFAs were obtained from Cayman Chemical (Ann Arbor, MI.) or synthesized in house (Linköping, Sweden) through methods previously described ([Bohannon et al., 2020]) and kept at −20 °C as 100 mM stock solutions in ethanol. Serial dilutions of the different PUFAs were prepared from stocks to make 0.2 μM, 0.7 μM, 2 μM, 7 μM, and 20 μM concentrations in ND96 solutions (pH = 7.5). PUFAs were perfused into the recording chamber using the Rainin Dynamax Peristaltic Pump (Model RP-1) (Rainin Instrument Co., Oakland, CA. USA).
Electrophysiological recordings were obtained using Clampex 10.3 software (Axon, pClamp, Molecular Devices). To measure Kv7.1/KCNE1 currents we apply PUFAs as the membrane potential is stepped every 30 s from −80 mV to 0 mV for 5 s before stepping to −40 mV and back to −80 mV to ensure that the PUFA effects on the current at 0 mV reached steady state. A voltage-step protocol was used to measure the current vs. voltage (I-V) relationship before PUFA application and after the PUFA effects had reached steady state for each concentration of PUFA. […]

Herg channels = tested on: Herg channels; set-up: method as in B.H. Bentzen and H. Duff, unpublished data; conditions: up to 10 μM; heterologous systems; ref B.H. Bentzen and H. Duff, unpublished data; cited from earlier work
Cav1.2/β2/α2δ = target: T2, Cav1.2/β2/α2δ (Homo sapiens, UniProt Q13936); experiment: Two-electrode voltage clamp of Cav1.2/β2/α2δ expressed in Xenopus oocytes; format: cell-based; conditions: co-expression with β2 subunit instead of β3
T2 construct: expressed in transfected cells; host or cells: Xenopus laevis oocytes (cRNA injection; no ratio printed for the β2 combination)
Description: Molecular Biology cRNA encoding Kv7.1 (UniProt: P51787), KCNE1 (UniProt: P15382.1), Nav1.5 (UniProt: Q14524.1), Nav β1 (UniProt: […]), Nav β3 (UniProt: […]), Cav1.2 (GenBank: CAA84346), Cav β3 (Uniprot: P54286), Cav β2 (Uniprot: P54288), and Cav α2δ (Uniprot: P13806) were transcribed using the mMessage mMachine T7 kit (Ambion). 50 ng of cRNA was injected into defolliculated Xenopus laevis oocytes (Ecocyte, Austin, TX): For Kv7.1/KCNE1 channel expression, we injected a 3:1, weight:weight (Kv7.1:KCNE1) cRNA ratio. For Nav1.5 channel expression, we injected a 2:1, weight:weight (Nav1.5:β1) cRNA ratio. For Cav1.2 channel expression, we injected a 2:1:1, weight:weight (Cav1.2:β3:α2δ) cRNA ratio. The exact stoichiometry for channel macromolecular complexes, including α -subunits and auxiliary subunits is not clear for many ion channels. For example, there have been multiple reported stoichiometries for Kv7.1:KCNE1 determined in heterologous expression systems with some groups reporting flexible stoichiometry of 4 Kv7.1: 1–4 KCNE1 and others reporting a fixed stoichiometry of 4 Kv7.1: 2 KCNE1 ([Murray et al., 2016]; [Nakajo et al., 2010]). […]
Xenopus laevis oocytes were recorded in the two-electrode voltage clamp (TEVC) configuration. […]

T1 sequence (Q13936 1-2138 isoform Q13936-20): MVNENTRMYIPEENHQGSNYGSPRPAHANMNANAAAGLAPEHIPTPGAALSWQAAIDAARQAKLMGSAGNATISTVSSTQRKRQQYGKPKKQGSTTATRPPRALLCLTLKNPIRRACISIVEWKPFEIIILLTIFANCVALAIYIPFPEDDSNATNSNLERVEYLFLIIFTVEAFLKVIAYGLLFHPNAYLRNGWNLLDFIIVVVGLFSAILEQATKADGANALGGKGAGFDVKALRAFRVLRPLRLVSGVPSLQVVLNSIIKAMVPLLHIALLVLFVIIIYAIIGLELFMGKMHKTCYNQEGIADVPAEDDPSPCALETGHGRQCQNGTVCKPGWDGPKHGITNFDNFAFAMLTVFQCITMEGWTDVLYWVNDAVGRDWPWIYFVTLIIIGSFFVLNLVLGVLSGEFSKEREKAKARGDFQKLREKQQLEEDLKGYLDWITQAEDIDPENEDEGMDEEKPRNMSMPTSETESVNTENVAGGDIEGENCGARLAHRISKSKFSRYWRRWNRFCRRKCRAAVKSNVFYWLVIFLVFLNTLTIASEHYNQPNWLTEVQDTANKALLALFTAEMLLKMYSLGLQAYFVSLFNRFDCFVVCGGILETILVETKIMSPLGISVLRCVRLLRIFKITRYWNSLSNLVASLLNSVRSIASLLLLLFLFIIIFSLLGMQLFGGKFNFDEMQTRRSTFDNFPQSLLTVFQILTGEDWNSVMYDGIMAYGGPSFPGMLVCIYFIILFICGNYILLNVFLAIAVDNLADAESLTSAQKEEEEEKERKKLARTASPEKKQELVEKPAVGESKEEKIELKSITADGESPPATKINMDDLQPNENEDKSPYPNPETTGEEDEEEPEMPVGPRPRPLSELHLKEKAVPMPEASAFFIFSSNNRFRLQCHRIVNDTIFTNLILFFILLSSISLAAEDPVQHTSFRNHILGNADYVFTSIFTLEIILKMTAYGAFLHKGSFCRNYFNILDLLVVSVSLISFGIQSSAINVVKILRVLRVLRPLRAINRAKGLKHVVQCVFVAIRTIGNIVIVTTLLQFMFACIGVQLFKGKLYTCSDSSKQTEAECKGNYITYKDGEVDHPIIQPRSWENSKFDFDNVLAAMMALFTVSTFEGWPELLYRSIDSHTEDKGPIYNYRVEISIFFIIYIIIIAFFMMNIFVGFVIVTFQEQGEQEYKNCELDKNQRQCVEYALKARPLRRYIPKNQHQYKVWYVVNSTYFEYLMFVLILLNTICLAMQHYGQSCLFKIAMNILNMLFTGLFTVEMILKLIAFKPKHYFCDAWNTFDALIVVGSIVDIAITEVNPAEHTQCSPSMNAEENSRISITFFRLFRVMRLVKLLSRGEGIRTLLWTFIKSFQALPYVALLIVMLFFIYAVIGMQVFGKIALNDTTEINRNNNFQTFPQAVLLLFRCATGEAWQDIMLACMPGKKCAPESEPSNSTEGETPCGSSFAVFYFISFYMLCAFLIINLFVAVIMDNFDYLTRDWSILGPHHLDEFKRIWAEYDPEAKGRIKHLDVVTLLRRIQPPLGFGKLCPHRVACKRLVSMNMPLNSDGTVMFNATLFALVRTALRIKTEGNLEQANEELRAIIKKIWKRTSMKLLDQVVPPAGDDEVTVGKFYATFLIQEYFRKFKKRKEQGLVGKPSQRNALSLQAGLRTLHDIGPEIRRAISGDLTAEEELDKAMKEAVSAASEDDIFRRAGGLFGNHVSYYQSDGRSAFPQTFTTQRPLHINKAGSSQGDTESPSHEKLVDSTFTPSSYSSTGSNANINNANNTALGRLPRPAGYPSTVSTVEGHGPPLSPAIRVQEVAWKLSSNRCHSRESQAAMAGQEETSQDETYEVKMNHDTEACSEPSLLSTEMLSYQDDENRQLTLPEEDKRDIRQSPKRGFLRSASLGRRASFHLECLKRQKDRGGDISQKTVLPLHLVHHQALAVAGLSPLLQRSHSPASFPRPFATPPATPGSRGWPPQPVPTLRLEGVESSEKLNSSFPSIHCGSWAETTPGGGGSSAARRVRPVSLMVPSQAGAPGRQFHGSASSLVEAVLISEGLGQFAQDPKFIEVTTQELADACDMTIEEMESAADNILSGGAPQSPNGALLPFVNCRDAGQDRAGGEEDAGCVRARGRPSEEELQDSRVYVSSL
T1 sequence (P54286 whole entry partner): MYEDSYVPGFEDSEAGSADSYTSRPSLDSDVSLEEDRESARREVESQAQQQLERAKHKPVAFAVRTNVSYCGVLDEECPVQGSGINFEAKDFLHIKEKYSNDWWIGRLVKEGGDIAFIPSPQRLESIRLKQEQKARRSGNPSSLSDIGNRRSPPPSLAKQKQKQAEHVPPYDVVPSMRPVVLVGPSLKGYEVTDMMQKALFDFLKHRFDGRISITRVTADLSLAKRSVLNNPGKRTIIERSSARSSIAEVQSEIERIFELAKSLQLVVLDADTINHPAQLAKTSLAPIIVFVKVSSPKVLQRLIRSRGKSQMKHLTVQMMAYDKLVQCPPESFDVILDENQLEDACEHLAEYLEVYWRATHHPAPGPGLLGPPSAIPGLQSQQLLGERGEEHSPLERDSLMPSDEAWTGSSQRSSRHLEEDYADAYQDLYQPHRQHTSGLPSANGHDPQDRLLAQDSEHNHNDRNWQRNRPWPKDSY
T1 sequence (P13806 27-960 partner): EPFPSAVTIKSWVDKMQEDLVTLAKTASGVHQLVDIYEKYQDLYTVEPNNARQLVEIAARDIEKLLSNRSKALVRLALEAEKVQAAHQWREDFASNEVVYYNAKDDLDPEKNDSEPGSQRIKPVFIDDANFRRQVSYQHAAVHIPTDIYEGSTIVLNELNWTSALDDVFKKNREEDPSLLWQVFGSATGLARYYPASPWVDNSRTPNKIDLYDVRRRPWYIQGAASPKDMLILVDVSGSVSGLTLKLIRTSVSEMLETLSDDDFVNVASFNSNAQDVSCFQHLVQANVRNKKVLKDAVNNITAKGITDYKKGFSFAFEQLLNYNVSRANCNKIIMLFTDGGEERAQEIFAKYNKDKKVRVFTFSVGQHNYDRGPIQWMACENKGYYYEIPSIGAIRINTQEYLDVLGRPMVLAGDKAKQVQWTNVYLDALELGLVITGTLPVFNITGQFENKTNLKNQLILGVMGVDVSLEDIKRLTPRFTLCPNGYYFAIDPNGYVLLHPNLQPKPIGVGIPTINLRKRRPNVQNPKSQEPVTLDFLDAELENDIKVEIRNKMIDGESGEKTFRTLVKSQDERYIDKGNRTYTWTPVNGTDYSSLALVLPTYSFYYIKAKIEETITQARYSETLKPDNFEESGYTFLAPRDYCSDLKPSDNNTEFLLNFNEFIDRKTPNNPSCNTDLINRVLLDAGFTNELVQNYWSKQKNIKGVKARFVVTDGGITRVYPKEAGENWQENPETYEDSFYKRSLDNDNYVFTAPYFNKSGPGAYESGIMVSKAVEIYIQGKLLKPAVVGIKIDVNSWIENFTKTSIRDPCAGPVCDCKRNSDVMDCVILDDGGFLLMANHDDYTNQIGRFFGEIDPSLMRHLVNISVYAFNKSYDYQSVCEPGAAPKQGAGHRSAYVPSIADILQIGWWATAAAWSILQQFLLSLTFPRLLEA
T1 sequence (P13806 961-1106 partner): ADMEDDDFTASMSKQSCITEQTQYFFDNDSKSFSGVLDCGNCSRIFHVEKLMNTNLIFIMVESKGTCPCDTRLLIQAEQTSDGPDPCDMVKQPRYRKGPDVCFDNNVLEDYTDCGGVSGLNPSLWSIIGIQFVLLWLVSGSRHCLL
T2 sequence (Q13936 1-2138 isoform Q13936-20, other chains not shown): as the sequence (Q13936 1-2138 isoform Q13936-20) above
T2 sequence (P13806 27-960 partner, other chains not shown): as the sequence (P13806 27-960 partner) above
T2 sequence (P13806 961-1106 partner, other chains not shown): as the sequence (P13806 961-1106 partner) above

Structure (SMILES) | Gmax/Gmax0 (Cav1.2/β3/α2δ; 0.2 μM) | ΔV0.5 (voltage dependence of inactivation) (Cav1.2/β3/α2δ; 0.2 μM) [mV] | ICa I/I0 (Cav1.2/β3/α2δ; 0.2 μM) | Gmax/Gmax0 (Cav1.2/β3/α2δ; 0.7 μM) | ΔV0.5 (voltage dependence of inactivation) (Cav1.2/β3/α2δ; 0.7 μM) [mV] | ICa I/I0 (Cav1.2/β3/α2δ; 0.7 μM) | Gmax/Gmax0 (Cav1.2/β3/α2δ; 2 μM) | ΔV0.5 (voltage dependence of inactivation) (Cav1.2/β3/α2δ; 2 μM) [mV] | ICa I/I0 (Cav1.2/β3/α2δ; 2 μM) | Gmax/Gmax0 (Cav1.2/β3/α2δ; 7 μM) | ΔV0.5 (voltage dependence of inactivation) (Cav1.2/β3/α2δ; 7 μM) [mV] | Gmax/Gmax0 (Cav1.2/β3/α2δ; 20 μM) | ΔV0.5 (voltage dependence of inactivation) (Cav1.2/β3/α2δ; 20 μM) [mV] | ICa I/I0 (Cav1.2/β3/α2δ; 20 μM) | ICa I/I0 (Cav1.2/β3/α2δ; 7 μM) | further results
CCCCC/C=C\C/C=C\C/C=C\C/C=C\CCCC(=O)NCCS(=O)(=O)O [N-AT, N-arachidonoyl taurine] | 0.9 ± 0.02 | 0.4 ± 0.3 | 0.9 ± 0.1 | 0.9 ± 0.1 | 0.5 ± 1.0 | 0.9 ± 0.1 | 0.8 ± 0.03 | 0.2 ± 2.2 | 0.9 ± 0.1 | 0.7 ± 0.1 | 0.6 ± 2.0 | 0.6 ± 0.03 | 1.4 ± 1.7 | 0.7 ± 0.1 |  | effects on currents through Herg channels (Herg channels): neither N-AT nor DHA-glycine up to 10 μM had any significant effects
CCCCC/C=C\C/C=C\CCCCCCCC(=O)NCCS(=O)(=O)O [Lin-taurine, Linoleoyl taurine] | 1.0 ± 0.02 | 0.6 ± 0.5 | 1.0 ± 0.02 | 0.9 ± 0.02 | 0.9 ± 0.9 | 0.9 ± 0.1 | 0.7 ± 0.05 | -0.3 ± 1.8 | 0.7 ± 0.1 | 0.6 ± 0.05 | −1.9 ± 2.5 | 0.5 ± 0.04 | -1.2 ± 4.4 | 0.5 ± 0.1 | 0.6 ± 0.1 (p=0.01) | ΔV0.5 (voltage dependence of inactivation) (Cav1.2/β3/α2δ; 7 μM, listed as lin-taurine): -1.9 ± 2.5 mV; ICa I/I0 (Cav1.2/β3/α2δ; 7 μM, listed as lin-taurine): 0.6 ± 0.1; shift of the voltage dependence of activation (Cav1.2/β3/α2δ; 0.2-20 μM): without shifting the voltage-dependence of Cav1.2/β3/α2δ activation; response of Cav1.2/β2/α2δ compared with Cav1.2/β3/α2δ (Cav1.2/β2/α2δ): no differences between Cav1.2/β3/α2δ and Cav1.2/β2/α2δ
CCCCC/C=C\C/C=C\CC/C=C\CCCC(=O)NCC(=O)O [Pin-glycine] | 0.9 ± 0.1 | -3.2 ± 3.0 | 0.7 ± 0.1 | 0.9 ± 0.1 | -3.3 ± 3.4 | 0.8 ± 0.1 | 0.9 ± 0.1 | -4.3 ± 4.1 | 0.8 ± 0.1 | 0.8 ± 0.1 | −3.1 ± 4.2 | 0.7 ± 0.2 | -3.4 ± 5.6 | 0.6 ± 0.2 | 0.8 ± 0.1 (p=0.26) | Gmax/Gmax0 (Cav1.2/β3/α2δ; 7 μM, listed as pin-glycine): 0.8 ± 0.2; ΔV0.5 (voltage dependence of inactivation) (Cav1.2/β3/α2δ; 7 μM, listed as pin-glycine): -3.1 ± 4.2 mV; ICa I/I0 (Cav1.2/β3/α2δ; 7 μM, listed as pin-glycine): 0.8 ± 0.1
